Data on three compounds can be found in US10662477B2, “Biomarkers and methods to predict response to inhibitors and uses thereof” (Millennium Pharmaceuticals, Inc., priority 2012, dated 2020).

Each structure is given as a SMILES string. Read-outs that look alike come from different tables or passages of the source.

In assay [1] the test system is NSCLC patients. In words: BATTLE clinical trial Erlotinib arm, progression-free survival by Erlotinib PLSR model group. Format: in vivo, human.
A further assay relates to tumor xenografts. In words: Xenograft models of MLN4924 treatment, average plasma concentration needed for tumor stasis, sensitivity rank. Particulars: for C avg at stasis: average plasma concentration needed to reach tumor stasis; for Sensitivity Rank: rank of 1 is most sensitive, 16 is least sensitive. Format: in vivo, rats or mice.
For the next assay, the system named is human melanoma tumors. The experiment in a line: Melanoma explants (human tumor xenografts) in mice treated with MLN4924, tumor growth. It is filed as in vivo. Particulars: subcutaneous treatment. (Xenograft models place foreign cells or tissue in a host animal.)
Assay [2] has as its system Kidney cancer. The experiment in a line: Sorafenib phase III clinical trial on Kidney cancer. Format: in vivo, human. The following applies: Sorafenib vs. placebo.
Assay [3] has as its system Kidney cancer. Particulars: phase III clinical trial, cited from earlier work.
The test system of assay [4] is NSCLC patients. The experiment in a line: BATTLE clinical trial Sorafenib arm, progression-free survival by Sorafenib PLSR model group. Format: in vivo, human.

`C#Cc1cccc(Nc2ncnc3cc(OCCOC)c(OCCOC)cc23)c1` [Erlotinib, N-(3-ethynylphenyl)-6,7-bis(2-methoxyethoxy) quinazolin-4-amine] gave a PFS in the assay on NSCLC patients [1] (Erlotinib-resistant patients (Erlotinib PLSR signature), BATTLE Erlotinib arm) of 1.84 month. Moreover, the “median PFS” value with NSCLC patients [1] (Erlotinib-sensitive patient group (Erlotinib PLSR signature), BATTLE Erlotinib arm) is recorded as 3.84 month. For the same compound, the Hazard ratio in the assay with NSCLC patients [1] (Erlotinib-sensitive vs Erlotinib-resistant patient group, PFS, p-value 0.09) is listed as 0.43.
Regarding `NS(=O)(=O)OC[C@@H]1C[C@@H](n2ccc3c(N[C@H]4CCc5ccccc54)ncnc32)C[C@@H]1O` [MLN4924, ((1S,2S,4R)-4-{4-[(1S)-2,3-dihydro-1H-inden-1-ylamino]-7H-pyrrolo[2,3-d]pyrimidin-7-yl}-2-hydroxycyclopentyl)methyl sulphamate], the “C avg at stasis” value with tumor xenografts (A375 xenograft, melanoma) stood at 6.837 µg/mL; in the assay on tumor xenografts (DLD-1 xenograft, colon adenocarcinoma) it was 17.476 µg/mL; in the assay with tumor xenografts (DU-145 xenograft, prostate cancer) it was 9.365 µg/mL; in the assay on tumor xenografts (HCT116 (grown in mouse) xenograft, colorectal carcinoma), 1.983 µg/mL; in the assay with tumor xenografts (HCT116 (grown in rat) xenograft, colorectal carcinoma), 1.490 µg/mL; in the assay on tumor xenografts (HL-60 xenograft, promyelocytic leukemia), 2.023 µg/mL. Moreover, the “C avg at stasis” value in the assay on tumor xenografts (HT29 xenograft, colon adenocarcinoma) was determined as 7.171 µg/mL; in the assay on tumor xenografts (NCI-H69 xenograft, small cell lung cancer) it was 6.868 µg/mL; in the assay with tumor xenografts (NCI-H82 xenograft, small cell lung cancer), 5.316 µg/mL; in the assay with tumor xenografts (NCI-H322M xenograft, non-small cell lung carcinoma) it was 14.722 µg/mL; with tumor xenografts (NCI-H460 xenograft, non-small cell lung carcinoma) it was 17.070 µg/mL; in the assay on tumor xenografts (PC3 xenograft, prostate cancer) it was 5.968 µg/mL. The “C avg at stasis” value worked out at 3.691 µg/mL in the assay on tumor xenografts (PHTX-02B xenograft, Breast cancer); 8.501 µg/mL in the assay with tumor xenografts (PHTX-50M xenograft, melanoma); 11.588 µg/mL in the assay on tumor xenografts (PHTX-51M xenograft, melanoma); 9.890 µg/mL in the assay on tumor xenografts (SKOV3 xenograft, ovarian carcinoma). Also, the “Sensitivity Rank” value was determined as 7 in the assay on tumor xenografts (A375 xenograft); 16 in the assay with tumor xenografts (DLD-1 xenograft); 11 in the assay on tumor xenografts (DU-145 xenograft); 2 in the assay on tumor xenografts (HCT116 (grown in mouse) xenograft); 1 with tumor xenografts (HCT116 (grown in rat) xenograft); 3 in the assay with tumor xenografts (HL-60 xenograft). Further, the “Sensitivity Rank” value turned out to be 9 in the assay on tumor xenografts (HT29 xenograft); 8 with tumor xenografts (NCI-H69 xenograft); 5 with tumor xenografts (NCI-H82 xenograft); 14 in the assay with tumor xenografts (NCI-H322M xenograft); 15 with tumor xenografts (NCI-H460 xenograft); 6 in the assay with tumor xenografts (PC3 xenograft). In addition, the “Sensitivity Rank” value worked out at 4 in the assay on tumor xenografts (PHTX-02B xenograft), 10 in the assay on tumor xenografts (PHTX-50M xenograft), 13 in the assay with tumor xenografts (PHTX-51M xenograft) and 12 in the assay on tumor xenografts (SKOV3 xenograft). Moreover, the “Experimental Result with MLN4924 treatment” value in the assay on human melanoma tumors (melanoma explant 1, tumor growth in mice) is given as “Sensitive”; in the assay with human melanoma tumors (melanoma explant 2, tumor growth in mice), “Sensitive”; in the assay on human melanoma tumors (melanoma explant 3, tumor growth in mice), “Sensitive”; in the assay with human melanoma tumors (melanoma explant 4, tumor growth in mice) it was “Resistant”; in the assay with human melanoma tumors (melanoma explant 5, tumor growth in mice), “Resistant”; in the assay with human melanoma tumors (melanoma explant 6, tumor growth in mice) it was “Resistant”. Moreover, the “Experimental Result with MLN4924 treatment” value is recorded as “Resistant” in the assay on human melanoma tumors (melanoma explant 7, tumor growth in mice); “Resistant” with human melanoma tumors (melanoma explant 8, tumor growth in mice); “Resistant” with human melanoma tumors (melanoma explant 9, tumor growth in mice); “Resistant” in the assay on human melanoma tumors (melanoma explant 10, tumor growth in mice).
`CNC(=O)c1cc(Oc2ccc(NC(=O)Nc3ccc(Cl)c(C(F)(F)F)c3)cc2)ccn1` [Sorafenib] displayed a PFS benefit in the assay with Kidney cancer [2] of 2.77 month. The median survival is listed as 167 days in the assay on Kidney cancer [3] (Sorafenib arm (placebo 84 days)) and 5.57 months in the assay on Kidney cancer [3] (Sorafenib arm, days converted to months (placebo 2.80)). The “median PFS survival” value is 1.87 months with NSCLC patients [4] (marker-insensitive group (Sorafenib model), BATTLE Sorafenib arm) and 4.53 months with NSCLC patients [4] (marker-sensitive group (Sorafenib model), BATTLE Sorafenib arm). The PFS survival benefit with NSCLC patients [4] (marker-sensitive group vs marker-resistant group, BATTLE Sorafenib arm) was found to be 2.66 months. For the same compound, the Hazard-ratio in the assay with NSCLC patients [4] (marker-sensitive vs marker-resistant group, PFS, p-value 0.006) is 0.32.
